For 33 compounds, IC50 results are on record in patent US8501770B2 (ArQule, Inc., priority 2009, dated 2013).

Full-length inactive AKT1, sequence (P31749 whole entry): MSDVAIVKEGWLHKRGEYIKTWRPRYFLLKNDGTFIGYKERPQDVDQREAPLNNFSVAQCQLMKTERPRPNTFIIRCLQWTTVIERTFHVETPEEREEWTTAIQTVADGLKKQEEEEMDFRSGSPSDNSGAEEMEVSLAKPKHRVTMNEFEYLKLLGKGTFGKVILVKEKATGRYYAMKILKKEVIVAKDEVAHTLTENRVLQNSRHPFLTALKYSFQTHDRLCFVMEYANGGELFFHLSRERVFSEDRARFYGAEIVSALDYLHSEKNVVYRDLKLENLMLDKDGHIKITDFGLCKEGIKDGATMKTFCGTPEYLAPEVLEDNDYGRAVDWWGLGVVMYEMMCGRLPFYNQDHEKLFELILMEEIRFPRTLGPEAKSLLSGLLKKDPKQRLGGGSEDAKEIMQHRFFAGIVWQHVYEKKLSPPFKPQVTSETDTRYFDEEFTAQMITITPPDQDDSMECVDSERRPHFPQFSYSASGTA

The assay addresses Full-length inactive AKT1 (Homo sapiens, UniProt P31749). Description: Inactive Akt Alpha Screen Assay. Format: biochemical. Conditions: values not marked with "*"; read-out: Akt1 IC50, (AlphaScreen). The procedure, abridged:
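AlphaScreen read-out (excitation 640 nm, emission 570 nm) after 90 min incubation at room temperature in the dark. Signal comes from crosstide phosphorylation by AKT1, which was activated by added PDK1, MAPKAPK2, ATP and lipid vesicles, captured via phospho-AKT substrate antibody and streptavidin beads.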
By IC50 is commonly meant the concentration that inhibits the measured activity by half. Regarding `Cc1cnc2c(c1)nc(-c1cccnc1N)n2-c1ccc(CNC(=O)c2cccc(F)c2F)cc1` [Example 265, N-(4-(2-(2-aminopyridin-3-yl)-6-methyl-3H-imidazo[4,5-b]pyridin-3-yl)benzyl)-2,3-difluorobenzamide], the half-inhibitory concentration (IC50) worked out at 93 nM. Take `Cc1cnc2c(c1)nc(-c1cccnc1N)n2-c1ccc(CNC(=O)c2ccc(Cl)c(Cl)c2)cc1` [Example 266, N-(4-(2-(2-aminopyridin-3-yl)-6-methyl-3H-imidazo[4,5-b]pyridin-3-yl)benzyl)-3,4-dichlorobenzamide]: the IC50 is 230 nM. Turning to `Cc1cnc2c(c1)nc(-c1cccnc1N)n2-c1ccc(CNC(=O)c2cccc(C(F)(F)F)c2)cc1` [Example 267, N-(4-(2-(2-aminopyridin-3-yl)-6-methyl-3H-imidazo[4,5-b]pyridin-3-yl)benzyl)-3-(trifluoromethyl)benzamide], the IC50 worked out at 590 nM. On to `Cc1cnc2c(c1)nc(-c1cccnc1N)n2-c1ccc(CNC(=O)c2cccnc2)cc1` [Example 268, N-(4-(2-(2-aminopyridin-3-yl)-6-methyl-3H-imidazo[4,5-b]pyridin-3-yl)benzyl)nicotinamide], for which the IC50 was 590 nM. Under `Cc1cnc2c(c1)nc(-c1cccnc1N)n2-c1ccc(CNC(=O)c2ccc(C)c(C)c2)cc1` [Example 269, N-(4-(2-(2-aminopyridin-3-yl)-6-methyl-3H-imidazo[4,5-b]pyridin-3-yl)benzyl)-3,4-dimethylbenzamide] stands 160 nM. With `COC(=O)c1cccc(C(=O)NCc2ccc(-n3c(-c4cccnc4N)nc4cc(C)cnc43)cc2)c1` [Example 270, methyl 3-((4-(2-(2-aminopyridin-3-yl)-6-methyl-3H-imidazo[4,5-b]pyridin-3-yl)benzyl)carbamoyl)benzoate] the figure was 240 nM. Under `Cc1cnc2c(c1)nc(-c1cccnc1N)n2-c1ccc(CNC(=O)c2cncnc2)cc1` [Example 271, N-(4-(2-(2-aminopyridin-3-yl)-6-methyl-3H-imidazo[4,5-b]pyridin-3-yl)benzyl)pyrimidine-5-carboxamide] stands 640 nM; under `Cc1cnc2c(c1)nc(-c1cccnc1N)n2-c1ccc(CNC(=O)c2ccc(Cl)c(C)c2)cc1` [Example 272, N-(4-(2-(2-aminopyridin-3-yl)-6-methyl-3H-imidazo[4,5-b]pyridin-3-yl)benzyl)-4-chloro-3-methylbenzamide], 210 nM; under `Cc1cnc2c(c1)nc(-c1cccnc1N)n2-c1ccc(CNC(=O)C2CCCC2)cc1` [Example 273, N-(4-(2-(2-aminopyridin-3-yl)-6-methyl-3H-imidazo[4,5-b]pyridin-3-yl)benzyl)cyclopentanecarboxamide], 220 nM.

As to `Cc1cnc2c(c1)nc(-c1cccnc1N)n2-c1ccc(CNC(=O)c2cccnc2F)cc1` [Example 274, N-(4-(2-(2-aminopyridin-3-yl)-6-methyl-3H-imidazo[4,5-b]pyridin-3-yl)benzyl)-2-fluoronicotinamide], the IC50 was found to be 51000 nM.

For the compound `Cc1cnc2c(c1)nc(-c1cccnc1N)n2-c1ccc(CNC(=O)c2ccc(Cl)cc2Cl)cc1` [Example 275, N-(4-(2-(2-aminopyridin-3-yl)-6-methyl-3H-imidazo[4,5-b]pyridin-3-yl)benzyl)-2,4-dichlorobenzamide], the IC50 stood at 110 nM. As for `Cc1cnc2c(c1)nc(-c1cccnc1N)n2-c1ccc(CNC(=O)c2cncs2)cc1` [Example 276, N-(4-(2-(2-aminopyridin-3-yl)-6-methyl-3H-imidazo[4,5-b]pyridin-3-yl)benzyl)thiazole-5-carboxamide], the IC50 worked out at 780 nM. Under `Cc1cc(C)cc(C(=O)NCc2ccc(-n3c(-c4cccnc4N)nc4cc(C)cnc43)cc2)c1` [Example 277, N-(4-(2-(2-aminopyridin-3-yl)-6-methyl-3H-imidazo[4,5-b]pyridin-3-yl)benzyl)-3,5-dimethylbenzamide] stands 390 nM; under `Cc1cnc2c(c1)nc(-c1cccnc1N)n2-c1ccc(CNC(=O)c2ccc(C)c(F)c2)cc1` [Example 278, N-(4-(2-(2-aminopyridin-3-yl)-6-methyl-3H-imidazo[4,5-b]pyridin-3-yl)benzyl)-3-fluoro-4-methylbenzamide], 120 nM; under `Cc1cnc2c(c1)nc(-c1cccnc1N)n2-c1ccc(CNC(=O)c2ccc3ncccc3c2)cc1` [Example 279, N-(4-(2-(2-aminopyridin-3-yl)-6-methyl-3H-imidazo[4,5-b]pyridin-3-yl)benzyl)quinoline-6-carboxamide], 110 nM. Under `Cc1cnc2c(c1)nc(-c1cccnc1N)n2-c1ccc(CNC(=O)c2ccc(C)s2)cc1` [Example 280, N-(4-(2-(2-aminopyridin-3-yl)-6-methyl-3H-imidazo[4,5-b]pyridin-3-yl)benzyl)-5-methylthiophene-2-carboxamide] stands 110 nM; under `Cc1cnc2c(c1)nc(-c1cccnc1N)n2-c1ccc(CNC(=O)c2ccccc2C(F)(F)F)cc1` [Example 281, N-(4-(2-(2-aminopyridin-3-yl)-6-methyl-3H-imidazo[4,5-b]pyridin-3-yl)benzyl)-2-(trifluoromethyl)benzamide], 71 nM; under `Cc1cnc2c(c1)nc(-c1cccnc1N)n2-c1ccc(CNC(=O)c2cccc(Cl)c2)cc1` [Example 282, N-(4-(2-(2-aminopyridin-3-yl)-6-methyl-3H-imidazo[4,5-b]pyridin-3-yl)benzyl)-3-chlorobenzamide], 140 nM.

For the compound `Cc1cnc2c(c1)nc(-c1cccnc1N)n2-c1ccc(CNC(=O)c2cc(F)ccc2F)cc1` [Example 283, N-(4-(2-(2-aminopyridin-3-yl)-6-methyl-3H-imidazo[4,5-b]pyridin-3-yl)benzyl)-2,5-difluorobenzamide], the half-maximal inhibitory concentration (IC50) is 220 nM. Under `Cc1cnc2c(c1)nc(-c1cccnc1N)n2-c1ccc(CNC(=O)c2ccccn2)cc1` [Example 284, N-(4-(2-(2-aminopyridin-3-yl)-6-methyl-3H-imidazo[4,5-b]pyridin-3-yl)benzyl)picolinamide] stands 770 nM. Regarding `Cc1cnc2c(c1)nc(-c1cccnc1N)n2-c1ccc(CNC(=O)c2cnccn2)cc1` [Example 285, N-(4-(2-(2-aminopyridin-3-yl)-6-methyl-3H-imidazo[4,5-b]pyridin-3-yl)benzyl)pyrazine-2-carboxamide], the IC50 came out at 850 nM. With `Cc1cnc2c(c1)nc(-c1cccnc1N)n2-c1ccc(CNC(=O)Cc2nnn[nH]2)cc1` [Example 286, N-(4-(2-(2-aminopyridin-3-yl)-6-methyl-3H-imidazo[4,5-b]pyridin-3-yl)benzyl)-2-(1H-tetrazol-5-yl)acetamide] the figure was 740 nM; with `CC(C)(C)OC(=O)NCc1ccc(-n2c(-c3cccnc3N)nc3ccc(-c4ccc(CO)cc4)nc32)cc1` [Example 288, tert-butyl 4-(2-(2-aminopyridin-3-yl)-5-(4-(hydroxymethyl)phenyl)-3H-imidazo[4,5-b]pyridin-3-yl)benzylcarbamate], 450 nM. Take `CC(=O)Nc1ccc(-c2ccc3nc(-c4cccnc4N)n(-c4ccc(CNC(=O)c5cccc(F)c5)cc4)c3n2)cc1` [Example 291, N-(4-(5-(4-acetamidophenyl)-2-(2-amino-pyridin-3-yl)-3H-imidazo[4,5-b]pyridin-3-yl)benzyl)-3-fluorobenzamide]: the IC50 turned out to be 56 nM. Take `CC(=O)Nc1cccc(-c2ccc3nc(-c4cccnc4N)n(-c4ccc(CNC(=O)c5ccc(C)c(F)c5)cc4)c3n2)c1` [Example 293, N-(4-(5-(3-acetamidophenyl)-2-(2-aminopyridin-3-yl)-3H-imidazo[4,5-b]pyridin-3-yl)benzyl)-3-fluoro-4-methylbenzamide]: the IC50 turned out to be 9.5 nM. In the case of `Cc1ccc2cc(NC(=O)Cc3ccc(-n4c(-c5cccnc5N)nc5cc(Br)cnc54)cc3)ccc2n1` [Example 298, 2-(4-(2-(2-aminopyridin-3-yl)-6-bromo-3H-imidazo[4,5-b]pyridin-3-yl)phenyl)-N-(2-methylquinolin-6-yl)acetamide], the IC50 was found to be 14 nM. For `Nc1ncccc1-c1nc2cc(Br)cnc2n1-c1ccc(CC(=O)Nc2cccc(F)c2)cc1` [Example 299, 2-(4-(2-(2-aminopyridin-3-yl)-6-bromo-3H-imidazo[4,5-b]pyridin-3-yl)phenyl)-N-(3-fluorophenyl)acetamide], the IC50 was found to be 130 nM.

On to `Cc1ccc2nc(-c3cccnc3N)n(-c3ccc(CC(=O)Nc4cccc(F)c4)cc3)c2n1` [Example 300, 2-(4-(2-(2-aminopyridin-3-yl)-5-methyl-3H-imidazo[4,5-b]pyridin-3-yl)phenyl)-N-(3-fluorophenyl)acetamide], for which the IC50 was determined as 170 nM.

Turning to `Cc1ccc2nc(-c3cccnc3N)n(-c3ccc(CC(=O)Nc4ccccc4)cc3)c2n1` [Example 301, 2-(4-(2-(2-aminopyridin-3-yl)-5-methyl-3H-imidazo[4,5-b]pyridin-3-yl)phenyl)-N-phenylacetamide], the IC50 is 66 nM. In the case of `Cc1ccc2cc(NC(=O)Cc3ccc(-n4c(-c5cccnc5N)nc5ccc(C)nc54)cc3)ccc2n1` [Example 302, 2-(4-(2-(2-aminopyridin-3-yl)-5-methyl-3H-imidazo[4,5-b]pyridin-3-yl)phenyl)-N-(2-methylquinolin-6-yl)acetamide], the IC50 was 78 nM. With `Nc1ncccc1-c1nc2cc(Br)cnc2n1-c1ccc(NC(=O)c2ccccc2)cc1` [Example 304, N-(4-(2-(2-aminopyridin-3-yl)-6-bromo-3H-imidazo[4,5-b]pyridin-3-yl)phenyl)benzamide] the figure was 20 nM. Take `Nc1ncc(-c2ccc3nc(-c4cccnc4N)n(-c4ccc(CNC(=O)c5cccc(F)c5)cc4)c3n2)cn1` [Example 306, N-(4-(2-(2-aminopyridin-3-yl)-5-(2-aminopyrimidin-5-yl)-3H-imidazo[4,5-b]pyridin-3-yl)benzyl)-3-fluorobenzamide]: the IC50 was determined as 12 nM.

Turning to `Nc1ncccc1-c1nc2ccc(-c3cc[nH]c3)nc2n1-c1ccc(CNC(=O)c2cccc(F)c2)cc1` [Example 309, N-(4-(2-(2-aminopyridin-3-yl)-5-(1H-pyrrol-3-yl)-3H-imidazo[4,5-b]pyridin-3-yl)benzyl)-3-fluorobenzamide], the IC50 stood at 23 nM.
